Reference: patent US20130231305A1, “Method of Modulating Protein 14-3-3 Functionality By Facilitating or Inhibiting Phosphorylation” (Medvet Science Pty. Ltd., priority 2010, published 2013)
Substitutions are numbered along the chain they refer to. Entries after “also recorded” stand apart in the source; their conditions may differ.

Experiments:
14-3-3ζ [1] = biological target: T1, 14-3-3ζ (Homo sapiens, UniProt P63104); assay: 14-3-3 phosphorylation by PKCδCat-HA immunoprecipitates; format: biochemical; settings: recombinant 14-3-3ζ, FIG. 5B
T1 construct: made in house
T1 sequence (P63104 1-245): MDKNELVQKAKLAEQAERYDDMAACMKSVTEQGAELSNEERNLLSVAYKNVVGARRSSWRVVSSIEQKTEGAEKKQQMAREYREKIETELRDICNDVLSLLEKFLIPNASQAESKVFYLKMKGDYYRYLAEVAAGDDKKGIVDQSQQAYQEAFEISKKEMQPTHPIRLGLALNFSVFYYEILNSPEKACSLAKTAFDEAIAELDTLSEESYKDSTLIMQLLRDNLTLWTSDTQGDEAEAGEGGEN
Protocol: FIG. 5 is an image depicting that DMS is required for phosphorylation of 14-3-3ζ by PKCδCat but not for activation of the kinase. COS cells were transfected with either an empty expression construct (Mock) or one encoding a HA-tagged truncated form of PKCδ corresponding to the caspase-3 cleaved protein (PKCδCat-HA). 20 hours after transfection the cells were lysed and PKCδCat-HA was immunoprecipitated using an anti-HA antibody. (A) PKC assays were carried out on the immunoprecipitates from mock (open bars) and PKCδCat-HA (shaded bars) expressing cells using Ser25 peptide as substrate with [^32P]γ-ATP in the presence or absence of 100 μM DMS (delivered in 0.1% ethanol) or 10 μM of GF109203X (GFX), the PKC inhibitor. The values represent means±S.E. of triplicate determinations. (B) PKCδCat-HA immunoprecipitates were incubated with recombinant 14-3-3ζ and [^32P]γ-ATP in the presence or absence of DMS or GF109203X (GFX). Phosphorylated 14-3-3 was detected by autoradiography after separation of SDS-PAGE (upper panel). The gel was also coomassie stained to show equal loading of 14-3-3 protein (lower panel).
Equal amounts of PKCδCat-HA immunoprecipitate were used to assay for PKC kinase activity, or to phosphorylate recombinant 14-3-3. […] Following incubation, reactions were separated on 12.5% SDS-PAGE, coomassie stained and 14-3-3 phosphorylation analysed by autoradiography.

14-3-3ζ [2] = biological target: T1, 14-3-3ζ; assay: 14-3-3 phosphorylation by PKA catalytic subunit (autoradiography); format: biochemical; settings: 50 μM lipid delivered in 0.1% ethanol
Protocol: 14-3-3ζ (wild-type or S58A mutant) was incubated with the catalytic subunit of PKA in the presence (+) or absence (−) of 50 μM sphingosine (A) or DMS (B) delivered in 0.1% ethanol. Phosphorylated 14-3-3ζ was detected by autoradiography.
The assay was carried out by incubating 14-3-g (0.5 μg) with catalytic subunit of PKA (0.2 Units) with the indicated concentration of DMS delivered in 0.1% ethanol. Reactions were separated on SDS-PAGE and phosphorylated protein detected by autoradiography. […] (B) 14-3-3ζ was incubated with the catalytic subunit of PKA and 50 μM D-erythro-sphingosine (Sph), D-erythro-trimethyl-sphingosine (TMS), D-erythro-dihydro-sphingosine (DHS), phyto-sphingosine (PSph), D-erythro-sphingosine-1-phosphate (SIP), C2-ceramide (C2-Cer), sphingomyelin (SM), spermine (Sper) or linoleic acid (LA), all delivered in 0.1% ethanol. Phosphorylated 14-3-3ζ was detected by autoradiography.
(§1) Substrate 14-3-3 (either 0.5 μg of purified recombinant 14-3-3, a […] of fractions from gel filtration or immunoprecipitates from 14-3-3ζ-Myc transfected COS cells) were added to reaction mixture comprising 0.2 Units of the PKA catalytic subunit, in the presences or absence of sphingolipid (delivered in 0.1% v/v ethanol) in PICA reaction buffer (20 mM MOPS, pH 7.4, 20 mM β-glycerol phosphate, 4 mM EGTA, 1 mM Na3VO4, 60 mM MgCl2, 1 mM DTT, 500 μM ATP, 2.4 μCi [^32P]γ-ATP). Reactions were incubated at 37° C. for 15 minutes. After incubation, reactions were separated on 12.5% SDS-PAGE, coomassie stained and 14-3-3 phosphorylation analysed by autoradiography.

[3] = published, Contreras et al. 2006; cited from earlier work
14-3-3ζ S58A mutant = biological target: T2, 14-3-3ζ S58A mutant (Homo sapiens, UniProt P63104, S58A); assay: Phosphorylation of S58A mutant 14-3-3ζ by PKA catalytic subunit; format: biochemical; settings: 50 μM sphingosine; alanine substitution of Ser58
T2 construct: made in house
T2 sequence (P63104 1-245 S58A): T1 sequence (P63104 1-245) with S58A
Protocol: FIG. 1 is an image depicting that sphingosine is required for 14-3-3ζ phosphorylation on Ser58 by the catalytic subunit of PKA. 14-3-3ζ (wild-type or S58A mutant) was incubated with the catalytic subunit of PKA in the presence (+) or absence (−) of 50 μM sphingosine (A) or DMS (B) delivered in 0.1% ethanol. Phosphorylated 14-3-3ζ was detected by autoradiography. Gels were coomassie stained to show equal loading of 14-3-3 substrate.
as §1

14-3-3ζ [4] = biological target: T1, 14-3-3ζ; assay: Gel filtration of 14-3-3ζ with DMS and [3H]-sphingosine; format: binding; settings: co-elution in fractions 3-14; 25 μM DMS with trace [3H]-sphingosine
Protocol: FIG. 4 is a graphical representation depicting that sphingosine binds to 14-3-3 in vitro. 10 μg of recombinant 14-3-3 was incubated for 15 minutes at room temperature in 50 μl of buffer either in the absence (FIG. A, thick line) or presence of [^3H]-sphingosine (0.5 μCi) with 25 μM DMS (thin line). After incubation, the mixtures were separated by gel filtration as described under “examples”. (A) Absorbance at 280 nm was monitored continuously to identify the elution position of 14-3-3 protein. An aliquot of each eluted fraction was analysed for (B) sphingosine-binding to 14-3-3 by measuring [^3H]-sphingosine radioactivity as determined by scintillation counting; and (C) 14-3-3 phosphorylatability by incubation with 0.2 Units of PKA catalytic subunit and [^32P]γ-ATP. Phosphorylated 14-3-3 was detected by autoradiography. The chromatography and assays were repeated twice and similar results obtained.
Recombinant 14-3-3ζ (10 μg) was pre-incubated with 25 μM […] delivered in 0.1% v/v ethanol and [^3H]-sphingosine, (0.5 μCi) and then chromatographed on a SMART system with a Superdex 200PC 3.2/30 column (Amersham Biosciences, Australia). The system was operated at 40 μl/min using 20 mM Tris-HCl pH 7.5, 150 mM NaCl, 0.1 mM DTT, 10 mM β-mercaptoethanol as running buffer. Fractions (40 μl) were collected for 60 minutes after sample injection. […]

14-3-3 isoforms = assay: Phosphorylation of recombinant 14-3-3 isoforms by PKA catalytic subunit; format: biochemical; settings: 50 μM in 0.1% ethanol
Protocol: FIG. 3 is an image depicting that sphingosine is required for the phosphorylation of multiple 14-3-3 isoforms in the third helix. (A) Primary sequence alignment of 14-3-3 isoforms in the third helix showing conservation of a Ser phosphorylation site (shown in bold). Asterisks indicate identical amino acids. (B) Recombinant 14-3-3 isoforms were incubated with PKA catalytic subunit in the presence of 50 μM sphingosine, dimethyl-sphingosine (DMS) or FTY 720 (FTY) delivered in 0.1% ethanol (EtOH). Phosphorylated 14-3-3s were detected by autoradiography. Gels were coomassie stained to show equal loading of 14-3-3 substrate.
as §1

sphingosine-dependent phosphorylation of S58A 14-3-3ζ (14-3-3ζ S58A mutant): abolished
binding of [3H]-sphingosine to 14-3-3 (14-3-3ζ [4]): directly bound to 14-3-3
Compound: CCCCCCCCCCCCC/C=C/[C@@H](O)[C@@H](N)CO [sphingosine, D-erythro-sphingosine]
phosphorylation of 14-3-3 by PKCδCat (14-3-3ζ [1]): no phosphorylation is observed with PKCδCat unless sphingosine is present
phosphorylation of 14-3-3ζ on Ser58 by PKA catalytic subunit (14-3-3ζ [2]): not phosphorylated by PKA catalytic subunit unless sphingosine was present; also recorded: allowed phosphorylation
critical micelle concentration [3]: 18 µM
phosphorylation of 14-3-3 isoforms by PKA catalytic subunit (14-3-3 isoforms): all isoforms tested with the exception of 14-3-36 were phosphorylatable
